Consider 14 compounds from patent publication US20210300900A1, “OGA INHIBITOR COMPOUNDS” (Janssen Pharmaceutica NV, priority 2018, published 2021).

Counter-ions that a name gives are not always drawn.

The target in data set [1] is T1, recombinant human Meningioma Expressed Antigen 5 (MGEA5), also referred to as O-GcNAcase (OGA) (Homo sapiens, UniProt O60502).
T1 construct: Full length OGA enzyme was purchased at OnGene (cat #TP322411); purchased OnGene (so in the source)
T1 sequence (O60502 1-916): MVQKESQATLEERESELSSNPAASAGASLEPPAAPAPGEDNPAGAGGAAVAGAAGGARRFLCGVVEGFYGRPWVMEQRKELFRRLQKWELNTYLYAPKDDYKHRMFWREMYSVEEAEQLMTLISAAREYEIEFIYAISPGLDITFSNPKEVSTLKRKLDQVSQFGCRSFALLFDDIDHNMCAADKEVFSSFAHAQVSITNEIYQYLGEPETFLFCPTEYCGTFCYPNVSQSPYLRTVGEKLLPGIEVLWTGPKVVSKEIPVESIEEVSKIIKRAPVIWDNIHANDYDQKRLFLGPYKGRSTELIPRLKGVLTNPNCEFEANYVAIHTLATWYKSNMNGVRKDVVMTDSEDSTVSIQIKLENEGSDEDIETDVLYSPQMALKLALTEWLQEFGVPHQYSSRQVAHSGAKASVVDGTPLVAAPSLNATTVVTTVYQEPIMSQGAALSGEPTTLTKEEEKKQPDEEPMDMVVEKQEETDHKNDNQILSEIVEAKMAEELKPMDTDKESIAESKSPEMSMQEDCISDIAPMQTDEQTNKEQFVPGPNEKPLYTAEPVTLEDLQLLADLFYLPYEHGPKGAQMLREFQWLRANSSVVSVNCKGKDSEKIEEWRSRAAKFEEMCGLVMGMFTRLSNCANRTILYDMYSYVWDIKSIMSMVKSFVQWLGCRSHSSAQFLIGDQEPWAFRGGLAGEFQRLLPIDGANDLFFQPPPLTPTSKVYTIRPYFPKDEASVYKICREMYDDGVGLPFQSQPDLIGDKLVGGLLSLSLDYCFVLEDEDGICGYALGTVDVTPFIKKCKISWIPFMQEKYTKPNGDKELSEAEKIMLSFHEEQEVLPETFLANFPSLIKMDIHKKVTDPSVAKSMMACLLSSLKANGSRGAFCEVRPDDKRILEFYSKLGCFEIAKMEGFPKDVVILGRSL
Description: OGA biochemical assay (inhibition of FM-GlcNAc hydrolysis, fluorescence). The note with it: FM-GlcNAc substrate; for Emax: read-out: Enzymatic Emax (%); for IC50: read-out: Enzymatic hOGA, pIC50 (converted). Summed up: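 Full-length recombinant human OGA (2 nM) pre-incubated 60 min with compound, then FM-GlcNAc (100 uM final) added in 200 mM citrate/phosphate pH 7.2 with 0.005% Tween-20; 6 h at room temperature, stopped with pH 11.0 carbonate. Fluorescein read at ex 485/em 538 nm; IC50 and Hill coefficient from curve fit against no-inhibitor and saturating-standard controls.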

Data set [2] has as its target T2, OGA (Homo sapiens, UniProt O60502).
T2 construct: endogenous in cells; host or cells: HEK293 cells inducible for P301L mutant human Tau (isoform 2N4R)
T2 sequence (O60502 1-916): T1 sequence (O60502 1-916)
Put plainly: OGA cellular assay (ICC detection of O-GlcNAcylated proteins in HEK293 cells inducible for P301L mutant human Tau). Format: cell-based. The note with it: 6 hours incubation; for Emax: HEK293, HEK293 cells inducible for P301L mutant human Tau, maximum = Thiamet G 200 uM; for EC50: HEK293 cells inducible for P301L mutant human Tau, read-out: Cellular hOGA, pEC50 (converted). Summed up:
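HEK293 cells inducible for P301L Tau (2N4R), seeded in low-glucose medium, treated 6 hours with compound (0.2% DMSO). O-GlcNAcylated proteins detected by CTD110.6 immunocytochemistry, imaged at 488 nm, nuclei counted with Hoechst; values from non-linear regression against 200 uM Thiamet G as maximum.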

In general, melting point refers to the temperature, or range, at which the solid turns liquid. As for `COc1ccc(F)c(C(C)N2CCCC(CNc3cc(C)nc(C)c3)C2)n1` (stereo not shown) (as salt: HCl) [Product 86], the melting point came out at 206.8 °C.

`COc1ccc(F)c(C(C)N2CCCC(CNc3cc(C)nc(C(F)(F)F)c3)C2)n1` (stereo not shown) (as salt: HCl) [Product 96] displayed a melting point of 211.6 °C.

On to `CC(=O)Nc1cc(CN2CCCC(COc3cc(C)nc(C)c3)C2)n[nH]1` (stereo not shown) (as salt: hydrochloric acid salt) [Product 119], for which the melting point was 192.2 °C.

The compound `CC(=O)Nc1cc(C(C)N2CCC[C@H](Cc3cc(C)nc(C)c3)C2)cnc1C` (mixture of isomers) (as salt: HCl) [Product 33] gave a melting point of 147.5 °C.

In turn, `CCC(=O)Nc1cncc(C(C)N2CCC[C@H](Cc3cc(C)nc(C)c3)C2)c1` (mixture of isomers) (as salt: HCl) [Product 38] came in with a melting point of 188.1 °C.

`CNC(=O)c1cncc(C(C)N2CCC[C@H](Cc3cc(C)nc(C)c3)C2)c1` (mixture of isomers) (as salt: HCl) [Product 40]: the melting point was 251.2 °C.

Take `COc1cncc(C(C)N2CCC[C@H](Cc3cc(C)nc(C)c3)C2)c1` (mixture of isomers) (as salt: HCl) [Product 43]: the melting point was determined as 161.4 °C.

`CCOc1cncc(C(C)N2CCC[C@H](Cc3cc(C)nc(C)c3)C2)c1` (mixture of isomers) (as salt: HCl) [Product 44]: the melting point is 138 °C.

For `COc1cc(NC[C@H]2CCCN(C(C)c3nc(OC)ccc3F)C2)cc(C)n1` (mixture of isomers) (as salt: HCl) [Product 90], the melting point was determined as 151.3 °C.

In general, Emax refers to the maximal effect, on the per cent scale that the assay sets. Turning to `CCOc1cc(CN2CCC[C@H](Cc3cc(C)nc(C)c3)C2)n[nH]1` [Product 14], the melting point came to 112.89 °C. Also, in data set [1], the Emax was 81% and the IC50 was 2750 nM.

Take `CC(=O)Nc1cnc(C(C)N2CCC[C@H](Cc3cc(C)nc(C)c3)C2)cn1` (stereo partly shown) [Product 64]: the melting point was determined as 211.6 °C. Also, in data set [1], the Emax was determined as 95% and the IC50 was 692 nM. Also, in data set [2], the Emax came to 26% and the EC50 is above 1000 nM.

With `CC(=O)Nc1cc(C(C)N2CCCC(c3cc(C)nc(C)c3)C2)n[nH]1` (stereo not shown) [Product 72], the melting point was found to be 184.68 °C. In addition, in data set [1], the maximal response (Emax) came to 97% and the IC50 was 457 nM. In addition, in data set [2], the Emax was found to be 31% and the EC50 was above 1000 nM.

Compound `CC(=O)Nc1cc(C(C)N2CCCC(CNc3cc(C)nc(C(F)(F)F)c3)C2)[nH]n1` (stereo not shown) [Product 91] gave a melting point of 261.7 °C. Also, in data set [1], the Emax came to 104% and the IC50 is 129 nM.

In the case of `CC(=O)Nc1ncc(CN2CCC[C@H](Cc3cc(C)nc(C)c3)C2)nc1C.Cl` [Product 158], the melting point is 158.1 °C. In data set [1], the Emax was 13% and the IC50 is above 10000 nM.
